Results published in US11267811B2, “Small molecule inhibitors of galectin-3” (BRISTOL-MYERS SQUIBB COMPANY, priority 2017, dated 2022).
Read-outs that look alike come from different tables or passages of the source.

Biological target: His-tagged recombinant human Gal-3 (hGal-3) (Homo sapiens (Human), UniProt P17931)
Assay: Gal-3 HTRF assay (His-tagged hGal-3 binding to B-ASF);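 note: compounds preincubated 30 min with hGal-3, then 1 h with B-ASF, detection via terbium anti-His antibody and streptavidin d2. Control with B-ASF counts as full signal, omitting B-ASF as background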
[1] = HTRF, hGal-3 15 nM, B-ASF 15 nM, read-out: hGal-3 IC50

Chain of His-tagged recombinant human Gal-3 (hGal-3) (P17931 whole entry): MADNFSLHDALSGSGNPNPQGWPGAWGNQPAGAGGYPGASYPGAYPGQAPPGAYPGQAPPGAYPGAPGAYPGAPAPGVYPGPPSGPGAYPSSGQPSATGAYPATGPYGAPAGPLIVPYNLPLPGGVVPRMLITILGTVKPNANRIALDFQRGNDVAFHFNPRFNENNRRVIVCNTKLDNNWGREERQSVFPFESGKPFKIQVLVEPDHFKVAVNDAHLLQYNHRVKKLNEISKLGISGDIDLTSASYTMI

| Structure (SMILES) | IC50 [1] [nM] | also measured |
| --- | --- | --- |
| Cc1nc([C@@H]2O[C@H](CO)[C@H](O)[C@H](n3cc(-c4cc(F)c(F)c(F)c4)nn3)[C@H]2O)n(-c2nc3ccnn3cc2F)n1 [Example 66] | 3840 |  |
| O=C(O)CO[C@@H]1[C@@H](n2cc(-c3cc(F)c(F)c(F)c3)nn2)[C@@H](O)[C@@H](CO)O[C@H]1n1nncc1-c1cccc(Cl)c1 [Example 14] | 8430 |  |
| Cc1nc2ccc(-n3c([C@@H]4O[C@H](CO)[C@H](O)[C@H](n5cc(-c6cc(F)c(F)c(F)c6)nn5)[C@H]4O)nnc3C(C)(C)O)cc2s1 [Example 276, (2R,3R,4R,5R,6S)-2-(hydroxymethyl)-6-(5-(2-hydroxypropan-2-yl)-4-(2-methylbenzo[d]thiazol-6-yl)-4H-1,2,4-triazol-3-yl)-4-(4-(3,4,5-trifluorophenyl)-1H-1,2,3-triazol-1-yl)tetrahydro-2H-pyran-3,5-diol] | 50 |  |
| Cc1nc2ccc(-n3ncnc3[C@@H]3O[C@H](CO)[C@H](O)[C@H](n4cc(C(=O)NC5CC5)nn4)[C@H]3O)cc2s1 [Example 193, N-cyclopropyl-1-((2R,3R,4R,5R,6S)-3,5-dihydroxy-2-(hydroxymethyl)-6-(1-(2-methylbenzo[d]thiazol-6-yl)-1H-1,2,4-triazol-5-yl)tetrahydro-2H-pyran-4-yl)-1H-1,2,3-triazole-4-carboxamide] | 180 |  |
| Cc1nc([C@@H]2O[C@H](CO)[C@H](O)[C@H](n3cc(-c4ccc(Cl)c(F)c4)nn3)[C@H]2O)n(-c2cc(Cl)ccc2Br)n1 [Example A15] |  | IC50 (read-out: hGal IC50): 40 nM |
| Cc1nc([C@@H]2O[C@H](CO)[C@H](O)[C@H](n3cc(-c4cc(F)c5ccccc5c4)nn3)[C@H]2O)n(-c2ccc3ncsc3c2)n1 [Example A70] |  | IC50 (read-out: hGal IC50): 15 nM |
| Cc1nc([C@@H]2O[C@H](CO)[C@H](O)[C@H](n3cc(-c4ccc(Cl)c(F)c4)nn3)[C@H]2O)n(-c2cc(Cl)ccc2C2CC2)n1 [Example A41] |  | IC50 (read-out: hGal IC50): 59 nM |
| O=C(O)c1nnn([C@@H]2O[C@H](CO)[C@H](O)[C@H](n3cc(-c4cc(F)c(F)c(F)c4)nn3)[C@H]2O)c1-c1ccc(Cl)c(Cl)c1 [Example 11] | 184 |  |
| COc1cc(-n2cnnc2[C@@H]2O[C@H](CO)[C@H](O)[C@H](n3cc(-c4cc(F)c(F)c(F)c4)nn3)[C@H]2O)ccn1 [Example 133] | 200 |  |
| Cc1nc2ccc(-n3ncnc3[C@@H]3O[C@H](CO)[C@H](O)[C@H](n4cc(-c5cc(F)c(N6CCOCC6)c(F)c5)nn4)[C@H]3O)cc2s1 [Example 243] | 80 |  |
| Cc1nc([C@@H]2O[C@H](CO)[C@H](O)[C@H](n3cc(-c4ccc(Cl)cc4F)nn3)[C@H]2O)n(-c2cc(Cl)ccc2C(F)(F)F)n1 [Example A52] |  | IC50 (read-out: hGal IC50): 52 nM |
| OC[C@H]1O[C@@H](c2nncn2Cc2nc3ccccc3s2)[C@H](O)[C@@H](n2cc(-c3cc(F)c(F)c(F)c3)nn2)[C@H]1O [Example 130] | 320 |  |
| OC[C@H]1O[C@@H](c2ncnn2-c2ccccc2)[C@H](O)[C@@H](n2cc(-c3cc(F)c(F)c(F)c3)nn2)[C@H]1O [Example 20] | 708 |  |
| Cc1nc([C@@H]2O[C@H](CO)[C@H](O)[C@H](n3cc(-c4ccc(Cl)c(F)c4)nn3)[C@H]2O)n(-c2ccc3ncccc3c2)n1 [Example 253] |  | IC50 (read-out: hGal3 IC50): 80 nM |
| COC(=O)c1cc2ccc(-n3cnnc3[C@@H]3O[C@H](CO)[C@H](O)[C@H](n4cc(-c5cc(F)c(F)c(F)c5)nn4)[C@H]3O)cc2s1 [Example 163] | 220 |  |
| Cc1nc([C@@H]2O[C@H](CO)[C@H](O)[C@H](n3cc(-c4ccc(Cl)c(F)c4)nn3)[C@H]2O)n(-c2ccc(Cl)c(Cl)c2)n1 [Example 252] |  | IC50 (read-out: hGal3 IC50): 110 nM |
| Cc1nc([C@@H]2O[C@H](CO)[C@H](O)[C@H](n3cc(-c4cc(F)c(Cl)c(F)c4)nn3)[C@H]2O)n(-c2cc(Cl)ccc2C(F)F)n1 [Example A60] |  | IC50 (read-out: hGal IC50): 36 nM |
| COc1cccc(-c2cnnn2[C@@H]2O[C@H](CO)[C@H](O)[C@H](n3cc(-c4cc(F)c(F)c(F)c4)nn3)[C@H]2O)c1 [Example 9] | 158 |  |
| OC[C@H]1O[C@@H](c2ncnn2[C@@H]2CCCC[C@H]2O)[C@H](O)[C@@H](n2cc(-c3cc(F)c(F)c(F)c3)nn2)[C@H]1O [Example 171] | 2020 |  |
| Cc1nc([C@@H]2O[C@H](CO)[C@H](O)[C@H](n3cc(-c4ccc(Cl)c(F)c4)nn3)[C@H]2O)n(-c2ccccc2)n1 [Example 247] |  | IC50 (read-out: hGal3 IC50): 450 nM |
| Cc1nc([C@H]2C[C@@H](n3cc(-c4cc(F)c(Cl)c(F)c4)nn3)[C@@H](O)[C@@H](CO)O2)n(-c2cc(Cl)ccc2Cl)n1 [Example 262] |  | IC50 (read-out: hGal3 IC50): 100 nM |
| OC[C@H]1O[C@@H](c2ncnn2-c2ccc(Cl)c(Cl)c2)[C@H](O)[C@@H](n2cc(-c3cc(F)c(F)c(F)c3)nn2)[C@H]1O [Example 21] | 79 |  |
| Cc1nc2ccc(-n3ncnc3[C@@H]3O[C@H](CO)[C@H](O)[C@H](n4cc(C(=O)NC5CCCCC5)nn4)[C@H]3O)cc2s1 [Example 198] | 1020 |  |
| Cc1nc([C@@H]2O[C@H](CO)[C@H](O)[C@H](n3cc(-c4ccc(Cl)c(F)c4)nn3)[C@H]2O)n(-c2cc(Cl)c(F)cc2Cl)n1 [Example A47] |  | IC50 (read-out: hGal IC50): 54 nM |
| O=C(NCc1ccncc1)c1nnc([C@@H]2O[C@H](CO)[C@H](O)[C@H](n3cc(-c4cccc(F)c4)nn3)[C@H]2O)o1 [Example 296, 5-((2R,3R,4S,5R,6R)-4-(4-(3-fluorophenyl)-1H-1,2,3-triazol-1-yl)-3,5-dihydroxy-6-(hydroxymethyl)tetrahydro-2H-pyran-2-yl)-N-(pyridin-4-ylmethyl)-1,3,4-oxadiazole-2-carboxamide] | 1490 |  |
| OC[C@H]1O[C@@H](c2nncn2-c2cc(Cl)cc(Cl)c2)[C@H](O)[C@@H](n2cc(-c3cc(F)c(F)c(F)c3)nn2)[C@H]1O [Example 101] | 80 |  |
| O=C(NCc1cccnc1)c1nnc([C@@H]2O[C@H](CO)[C@H](O)[C@H](n3cc(-c4cccc(F)c4)nn3)[C@H]2O)o1 [Example 298, 5-((2R,3R,4S,5R,6R)-4-(4-(3-fluorophenyl)-1H-1,2,3-triazol-1-yl)-3,5-dihydroxy-6-(hydroxymethyl)tetrahydro-2H-pyran-2-yl)-N-(pyridin-3-ylmethyl)-1,3,4-oxadiazole-2-carboxamide] | 43600 |  |
| CS(=O)(=O)c1cccc(-n2cnnc2[C@@H]2O[C@H](CO)[C@H](O)[C@H](n3cc(-c4cc(F)c(F)c(F)c4)nn3)[C@H]2O)c1 [Example 128] | 310 |  |
| Cc1nc([C@@H]2O[C@H](CO)[C@H](O)[C@H](n3cc(-c4ccc(Cl)c(Cl)c4)nn3)[C@H]2O)n(-c2cc(Cl)ccc2C(F)(F)F)n1 [Example A3, (2S,3R,4R,5R,6R)-2-(1-(5-Chloro-2-(trifluoromethyl)phenyl)-3-methyl-1H-1,2,4-triazol-5-yl)-4-(4-(3,4-dichlorophenyl)-1H-1,2,3-triazol-1-yl)-6-(hydroxymethyl)tetrahydro-2H-pyran-3,5-diol] | 33 |  |

Further lines, with some results ahead:

| IC50 [1] [nM] | Structure (SMILES) | also measured |
| --- | --- | --- |
| 1040 | O=C(O)c1cccc(-n2ncnc2[C@@H]2O[C@H](CO)[C@H](O)[C@H](n3cc(-c4cc(F)c(F)c(F)c4)nn3)[C@H]2O)c1 [Example 31] |  |
| 240 | Cc1nc2ccc(-n3ncnc3[C@@H]3O[C@H](CO)[C@H](O)[C@H](n4cc(-c5cc(F)c(Cl)cc5F)nn4)[C@H]3O)cc2s1 [Example 222] |  |
| 10600 | O=C(NCCN1CCOCC1)c1nnc([C@@H]2O[C@H](CO)[C@H](O)[C@H](n3cc(-c4cccc(F)c4)nn3)[C@H]2O)o1 [Example 299, 5-((2R,3R,4S,5R,6R)-4-(4-(3-fluorophenyl)-1H-1,2,3-triazol-1-yl)-3,5-dihydroxy-6-(hydroxymethyl)tetrahydro-2H-pyran-2-yl)-N-(2-morpholinoethyl)-1,3,4-oxadiazole-2-carboxamide] |  |
| 44 | OC[C@H]1O[C@@H](c2nncn2-c2cc(Cl)ccc2Cl)[C@H](O)[C@@H](n2cc(-c3cc(F)c(Cl)c(F)c3)nn2)[C@H]1O [Example 326, (2S,3R,4R,5R,6R)-4-(4-(4-chloro-3,5-difluorophenyl)-1H-1,2,3-triazol-1-yl)-2-(4-(2,5-dichlorophenyl)-4H-1,2,4-triazol-3-yl)-6-(hydroxymethyl)tetrahydro-2H-py ran-3,5-diol] |  |
| 30 | OC[C@H]1O[C@@H](c2nncn2-c2ccc3ncsc3c2)[C@H](O)[C@@H](n2cc(-c3cc(F)c(F)c(F)c3)nn2)[C@H]1O [Example 120] |  |
| 700 | CC(C)Oc1ccc(-n2cnnc2[C@@H]2O[C@H](CO)[C@H](O)[C@H](n3cc(-c4cc(F)c(F)c(F)c4)nn3)[C@H]2O)cc1 [Example 103] |  |
| 50 | CO[C@@H]1[C@@H](n2cc(-c3ccc(Cl)c(F)c3)nn2)[C@@H](O)[C@@H](CO)O[C@H]1c1nc(C)nn1-c1cc(Cl)ccc1Cl [Example 257, (2R,3R,4S,5R,6S)-4-(4-(4-chloro-3-fluorophenyl)-1H-1,2,3-triazol-1-yl)-6-(1-(2,5-dichlorophenyl)-3-methyl-1H-1,2,4-triazol-5-yl)-2-(hydroxymethyl)-5-methoxytetrahydro-2H-pyran-3-ol] |  |
| 20 | Cc1nnc([C@@H]2O[C@H](CO)[C@H](O)[C@H](n3cc(-c4ccc(Br)c(F)c4)nn3)[C@H]2OCC(F)F)n1-c1cc(Cl)ccc1C(F)(F)F [Example 325, (2R,3R,4S,5R,6S)-4-(4-(4-bromo-3-fluorophenyl)-1H-1,2,3-triazol-1-yl)-6-(4-(5-chloro-2-(trifluoromethyl)phenyl)-5-methyl-4H-1,2,4-triazol-3-yl)-5-(2,2-difluoroethoxy)-2-(hydroxymethyl)tetrahydro-2H-pyran-3-ol] |  |
| 80 | Cc1nc([C@@H]2O[C@H](CO)[C@H](O)[C@H](n3cc(-c4ccc(Cl)c(F)c4)nn3)[C@H]2O)n(-c2cccc(Cl)c2)n1 [Example 244, (2S,3R,4R,5R,6R)-4-(4-(4-chloro-3-fluorophenyl)-1H-1,2,3-triazol-1-yl)-2-(1-(3-chlorophenyl)-3-methyl-1H-1,2,4-triazol-5-yl)-6-(hydroxymethyl)tetrahydro-2H-pyran-3,5-diol] |  |
| 300 | OC[C@H]1O[C@@H](c2ncnn2-c2ccc(Cl)c(Cl)c2)C[C@@H](n2cc(-c3cc(F)c(F)c(F)c3)nn2)[C@H]1O [Example 174] |  |
| 20 | CCc1ccc(Cl)cc1-n1nc(C)nc1[C@@H]1O[C@H](CO)[C@H](O)[C@H](n2cc(-c3cc(F)c(F)c(F)c3)nn2)[C@H]1O [Example 72] |  |
